Data published in patent US20230174571A1, “METHOD OF TREATING SHIP1-MEDIATED DISEASES USING PELOROL DERIVATIVES” (Zebrapeutics Inc., priority 2020, published 2023).

Legend:
SHIP1 and STAT3 = molecular target: T1, SHIP1 and STAT3 (Mus musculus, UniProt Q9ES52, Y190F); test: In vitro pull down assay of His6-SHIP1 with STAT3; format: cell-based; conditions: Y190F vs wild-type SHIP1 cells; 5 minutes stimulation
T1 construct: expressed in transfected cells; host or cells: J17 (SHIP1-/- mouse BMDM-derived line), lentiviral transduction
T1 sequence (Q9ES52 1-1191 Y190F): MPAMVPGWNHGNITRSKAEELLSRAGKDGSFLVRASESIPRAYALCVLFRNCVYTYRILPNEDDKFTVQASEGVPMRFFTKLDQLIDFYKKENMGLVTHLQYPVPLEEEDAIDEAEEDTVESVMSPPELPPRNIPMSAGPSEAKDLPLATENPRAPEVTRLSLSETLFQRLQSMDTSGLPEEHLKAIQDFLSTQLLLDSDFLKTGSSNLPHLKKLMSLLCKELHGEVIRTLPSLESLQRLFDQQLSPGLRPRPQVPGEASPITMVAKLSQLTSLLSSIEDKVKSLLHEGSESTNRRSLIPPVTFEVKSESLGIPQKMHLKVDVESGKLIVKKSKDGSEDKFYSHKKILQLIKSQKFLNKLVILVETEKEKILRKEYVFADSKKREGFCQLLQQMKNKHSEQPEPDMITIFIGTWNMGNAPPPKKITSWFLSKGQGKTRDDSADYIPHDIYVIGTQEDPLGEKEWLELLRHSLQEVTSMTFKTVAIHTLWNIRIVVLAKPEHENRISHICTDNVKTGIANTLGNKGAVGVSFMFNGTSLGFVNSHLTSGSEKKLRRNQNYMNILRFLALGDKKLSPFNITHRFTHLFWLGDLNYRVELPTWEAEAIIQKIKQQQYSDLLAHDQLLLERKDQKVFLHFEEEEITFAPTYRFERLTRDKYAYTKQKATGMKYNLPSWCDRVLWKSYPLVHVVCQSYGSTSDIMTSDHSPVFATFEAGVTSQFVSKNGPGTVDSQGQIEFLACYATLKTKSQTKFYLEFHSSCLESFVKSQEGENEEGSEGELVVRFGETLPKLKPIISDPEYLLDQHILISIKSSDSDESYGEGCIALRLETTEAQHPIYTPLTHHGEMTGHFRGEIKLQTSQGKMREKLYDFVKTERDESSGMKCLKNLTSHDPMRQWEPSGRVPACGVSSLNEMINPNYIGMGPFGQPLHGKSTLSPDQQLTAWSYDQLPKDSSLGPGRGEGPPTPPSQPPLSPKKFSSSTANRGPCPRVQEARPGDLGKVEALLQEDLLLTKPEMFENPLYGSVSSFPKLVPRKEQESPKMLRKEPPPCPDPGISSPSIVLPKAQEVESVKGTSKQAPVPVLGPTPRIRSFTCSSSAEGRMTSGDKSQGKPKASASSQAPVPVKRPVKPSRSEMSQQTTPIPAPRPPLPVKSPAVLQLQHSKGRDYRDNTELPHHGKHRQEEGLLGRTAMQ
Method: In vitro pull down assay. J17 His6-SHIP1 and Y190F cells were seeded at 2×10^6 cells per well in a 6-well plate. After overnight incubation, fresh cell media was added for 30 minutes before stimulation with 100 ng/ml IL10, […] or 20 μM compound I-2 for 5 minutes. Cells were lysed with Protein Solubilization Buffer (PSB, 50 mM Hepes, pH 7.5, […], 10 mM Na Pyrophosphate, 2 mM NaVO4, 2 mM Na Molybdate, 2 mM EDTA) containing 1% octylglucoside, 0.01 M imidazole, and protease inhibitor cocktail (Roche Diagnostics, Laval, QC) for 30 minutes at 4° C. and centrifuged at 10000 rpm for 15 minutes. EDTA resistant Ni beads (Roche Diagnostics, Laval, QC) were added to supernatants and the mixture incubated at 4° C. for 1 hour before spinning down and washing of beads three times with 0.1% octylglucoside wash buffer in PSB. Bead samples and starting material cell lysates were separated on a 7.5% SDS-PAGE gel.
Immunoblotting. Protein lysates were separated on SDS-PAGE gels and transferred onto polyvinylidene fluoride (PVDF) membrane (Millipore, Etobicoke, ON). Membranes were blocked and probed, where appropriate, with the following primary antibodies overnight: SHIP1 (P1C1) (Santa Cruz Biotechnology), pSHIP1 (Y190) (Kinexus), STAT3 (9D8) (ThermoFisher Scientific), pSTAT3 (Y705) (Thermo Fisher Scientific), STAT1 (BD Transduction Laboratories), pSTAT1 (Y701) (Upstate Biotechnology), GAPDH and actin (Sigma-Aldrich). Membranes were developed with either Alexa Fluor® 660 anti-mouse IgG or Alexa Fluor® 680 anti-rabbit IgG antibodies (Thermo Fisher Scientific) and imaged using a LI-COR Odyssey Imager.

[1] = system: LPS-stimulated TNFα production; test: Measurement of TNFα production in LPS-stimulated SHIP1 KO cells reconstituted with SHIP1; format: cell-based, mouse; conditions: 10 ng/ml LPS
Method: Cell lines. J16 and J17 cell lines derived from SHIP1+/+and −/−BMDM respectively were previously described (Ming-Lum et al., 2012) and cultured in Mac media (IMDM supplemented with 10% (v/v) FCS, 10 μM β-mercaptoethanol, 150 μM monothioglycolate and 1 mM L-glutamine). J17 cells expressing wild type and mutant His6-SHIP1, Clover-SHIP1 or mRuby2-STAT3 constructs were generated by lentivirus mediated gene transfer as described (Cheung et al., 2013). Transduced cells were selected with 5 μg/ml blasticidin. Clover-SHIP1 and mRuby2-STAT3 cells were further subjected to fluorescent activated cell sorting to select the brightest cells on a FACS Aria II cytometer.
Measurement of TNFα production. Cells were seeded at 50×10^4 cells per well in a 96-well tissue culture plate and allowed to adhere overnight. Media was changed the next day 1 hour prior to stimulation. Cells were stimulated with 1 or 10 ng/ml LPS+/−various concentrations of IL10 for 1 hour. Supernatant was collected and secreted TNFα protein levels were measured using a BD OptEIA Mouse TNFα Enzyme-Linked Immunosorbent Assay (ELISA) kit (BD Biosciences, Mississauga, ON). Triplicates wells were used for each stimulation condition. IC50 values were calculated from three independent experiments and differences in IL10 […] values from cells expressing SHIP1 mutants vs SHIP1 WT protein were analyzed by one-way ANOVA.

| Molecule | reduction of Y190F SHIP1 mutant ability to interact with STAT3 (SHIP1 and STAT3) [fold] | TNFα production ([1]; cells expressing K681A SHIP1) | TNFα production ([1]; cells expressing wild-type SHIP1) |
| --- | --- | --- | --- |
| CC12CCC3C(C)(C)C(N)CCC3(C)C1Cc1cc(O)cc(O)c12 (stereo not shown) [Compound I-2] | 2 | – | – |
| IL10: anti-inflammatory cytokine interleukin-10 | 2 | not | inhibited TNFα production efficiently |
